Results on five molecules are retold here after patent US20230364172A1, “MODULATION OF SOLUBILITY, PALATABILITY, ABSORPTION, AND BIOAVAILABILITY OF MITRAGYNA SPECIOSA-DERIVED COMPOUNDS FOR ORAL AND BUCCAL DELIVERY” (Syncotrance, LLC, priority 2022, published 2023).

Values joined by “and” are separate entries in the source; they are usually repeats but may differ in a detail not shown here. Identical values can stand only once. Counter-ions that a name gives are not always drawn. Like-named read-outs stand apart in the source and are kept apart here.

For series [1] the following is noted: cited from earlier work.
A short description of series [2]: Premix vs water for taste masking of sports nutrition active ingredients (Example M). To be noted: 1.5 g dose in Premix.
Method: The supplements were suspended in a premix or water for reference. The active ingredients and their dosages were selected to simulate a sports nutrition drink prepared in a small blender (200 ml volume).
The panelists were asked to rate aversiveness/palatability and provide a brief description of off-flavors.
Series [3] in a line: Physicochemical properties of mitragynine (pKa, Log P, aqueous solubility), literature. From the text:
Mitragynine is an indole alkaloid comprising 66% of total alkaloids in extracts of Mitragyna speciosa leaves (Adkins, J. E., Boyer, E. W., McCurdy, C. R., 2011. Mitragyna speciosa, a psychoactive tree from Southeast Asia with opioid activity. Curr. Top. Med. Chem. 11, 1165-1175) (Ponglux, D., Wongseripipatana, S., Takayama, H., Kikuchi, M., Kurihara, M., Kitajima, M., Aimi, N., Sakai, S., 1994. A new indole alkaloid, 7 alpha-Hydroxy-7H-mitragynine, from Mitragyna speciosa in Thailand. Planta Med. 60, 580-581.). […] The compound is moderately stable at neutral pH (^˜3.5% degradation after 3 h) but degraded at pH 1.2 (by 26% degradation after 1-2 hr) (Manda, V. K., Avula, B., Ali, Z., Khan, I. A., Walker, L. A., Khan, S. I., 2014. Evaluation of in vitro absorption, distribution, metabolism, and excretion (ADME) properties of mitragynine, 7-hydroxymitragynine, and mitraphylline. Planta Med. 80, 568-576) (Ramanathan, S., Parthasarathy, S., Murugaiyah, V., Magosso, E., Tan, S. C., Mansor, S. M., 2015. Understanding the physicochemical properties of mitragynine, a principal alkaloid of Mitragyna speciosa, for preclinical evaluation. Molecules 20, 4915-4927). […]

For series [4] the following is noted: rats; cited from earlier work.
The conditions of series [5]: cited from earlier work. The source holds these as a separate data set.
The conditions of series [6]: cited from earlier work. This is another data set of the same source.
The nature of series [7]: Phase separation of Kratom/Premix emulsion by visual observation (Example C).
The conditions of series [8]: 1% w/v, 0.1 mM quinine hydrochloride solution; cited from earlier work.

In the case of `CC[C@@H]1CN2CCc3c([nH]c4cccc(OC)c34)[C@H]2C[C@@H]1/C(=C\OC)C(=O)OC` (stereo in doubt) [mitragynine hydrochloride], the “absolute oral bioavailability of mitragynine” value in series [1] (rats, oral in comparison to intravenous administration) was 17.0%.
In the case of `NCC(=O)[O-].NCC(=O)[O-].[Mg+2]` [Magnesium Glycinate], the “pH in Premix” value in series [2] is on record as “flavors. pH 10.3 caused”.
For the molecule `CC[C@@H]1CN2CCc3c([nH]c4cccc(OC)c34)[C@@H]2C[C@@H]1/C(=C\OC)C(=O)OC` [Mitragynine], the “Biopharmaceutical Classification System (BCS) class” value in series [3] is “Class II”. Moreover, the “% AUCbrain/AUCplasma” value in series [4] is given as 65.8±4.5%. In addition, the bioavailability in series [1] (oral administration in rats, calculated from other studies by Ya et al.) is recorded as approximately 21%. Also, the degradation is reported as approximately 3.5% in series [5] (neutral pH, after 3 h) and 26% in series [5] (pH 1.2, after 1-2 hr). In addition, the pKa in series [6] is given as 8.1. Moreover, the “solubility in aqueous media” value in series [6] (pH 4) is 130 μM and 51.8 μg/ml; in series [6] (pH 7) it was 83 μM and 33.1 μg/ml. Moreover, the “solubility in a saliva type fluid” value in series [6] (pH 6.5) is 64.6±1.2 μcg/mL.
In the case of Polysorbate 80, the phase separation result is recorded as “separated” in series [7] (Polysorbate 80 0.3% w/v final, added to Final Mix); “separated” in series [7] (Polysorbate 80 0.3% w/v final, added to liquid extract); “separated” in series [7] (Polysorbate 80 0.3% w/v final, added to premix); “separated” in series [7] (Polysorbate 80 0.5% w/v final, added to Final Mix); “stable” in series [7] (Polysorbate 80 0.5% w/v final, added to liquid extract); “separated” in series [7] (Polysorbate 80 0.5% w/v final, added to premix). For the same molecule, the phase separation result in series [7] (Polysorbate 80 1% w/v final, added to Final Mix) is “separated”; in series [7] (Polysorbate 80 1% w/v final, added to liquid extract) it was “stable”; in series [7] (Polysorbate 80 1% w/v final, added to premix), “stable”; in series [7] (Polysorbate 80 1.5% w/v final, added to Final Mix), “stable”; in series [7] (Polysorbate 80 1.5% w/v final, added to liquid extract), “stable”; in series [7] (Polysorbate 80 1.5% w/v final, added to premix) it was “stable”.
phosphatidic acid: in series [8], the “bitterness-depressing effect due to adsorption” value is 36.1%, the “bitterness-depressing effect due to suppression at the receptor site” value is reported as 45.6% and the suppression of bitterness is 81.7%.
